According to patent US20090069324A1, “CHEMICAL INHIBITORS OF BFL-1 AND RELATED METHODS” (The Burnham Institute, priority 2007, published 2009):

Experiments:
Bfl-1 = target: T1, Bfl-1 (Homo sapiens, UniProt Q16548); assay: Bfl-1 fluorescence polarization assay (FPA/FP), competition with FITC-Bid BH3 peptide; assay type: binding; conditions: for Bfl-1 FP assay, activity in words: Bfl-1/FITC-Bid
T1 construct: lacking their C-terminal transmembrane domains (approximately last 20 amino-acids); made in house; host or cells: XL-1 Blue cells (E. coli), pGEX 4T-1
T1 sequence (Q16548 1-155 limits assumed): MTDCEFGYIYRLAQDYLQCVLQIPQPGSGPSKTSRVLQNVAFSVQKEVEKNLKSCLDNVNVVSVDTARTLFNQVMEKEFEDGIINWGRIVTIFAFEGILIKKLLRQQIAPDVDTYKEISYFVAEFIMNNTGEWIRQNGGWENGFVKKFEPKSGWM
Experimental: Fluorescence polarization assays (FPA). To determine the binding affinity of anti-apoptotic Bcl-2 polypeptides to FITC-conjugated Bid BH3 peptide, fluorescence polarization assays (FPAs) were performed according to published procedures (Zhai et al., Biochem. J. 376:229-236 (2003)). […] Fluorescence polarization was measured after 10 min using an Analyst™ AD Assay Detection System (LJL Biosystem, Sunnyvale, Calif.) in phosphate-buffered saline (PBS) (pH 7.4). The IC50 determinations were performed using GraphPad Prism software (GraphPad, Inc., San Diego, Calif.).
Competition assays. Using the same procedure outlined above, 100 nM of GST-Bfl-1 protein were incubated with the compounds at 50 μM concentration for 30 min. Then, 5 nM of FITC-Bid BH3 peptide was added. Fluorescence polarization was measured after 10 min. […]

Bcl-2 = target: T2, Bcl-2 (Homo sapiens, UniProt P10415); assay: Bcl-2/FITC-Bim FPA selectivity assay; assay type: binding; conditions: Bcl-2/FITC-Bim complex
T2 construct: lacking their C-terminal transmembrane domains (approximately last 20 amino-acids); GST (N); made in house; host or cells: XL-1 Blue cells (E. coli), pGEX 4T-1
T2 sequence (P10415 1-218 limits assumed): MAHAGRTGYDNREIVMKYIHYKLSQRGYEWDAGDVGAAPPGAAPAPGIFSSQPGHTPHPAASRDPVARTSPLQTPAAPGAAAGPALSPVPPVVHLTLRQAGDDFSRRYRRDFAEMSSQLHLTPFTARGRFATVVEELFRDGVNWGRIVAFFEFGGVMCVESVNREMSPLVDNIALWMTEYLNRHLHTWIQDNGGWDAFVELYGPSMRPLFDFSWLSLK
Text: This example illustrates assays for determining the selectivity of chemical inhibitors for Bfl-1. Bfl-1, as with other Bcl-2 family proteins, participates in a very complex and intricate network of interactions with other representatives of the family. Therefore, two selectivity assays involving family members Bcl-2 and Bcl-B were developed.
For Bcl-2, a FITC-conjugated peptide corresponding to the BH3 domain of Bim was used. For Bcl-B, a FITC-conjugated peptide corresponding to a fragment of the TR3/Nur77 protein shown to bind this member of the Bcl-2 family was used.
Probe specificity for target or for cell-based/phenotypic assays data can be determined in orthogonal cell-based assay systems that address the pathway of interest. For example, compounds were tested in Bfl-1/FITC-Bid FPA and TR-FRET assays (FIGS. 7A and 7B, respectively), as well as Bcl-2/FITC-Bim FPA (FIG. 7C) and Bcl-B/FITC-TR3-R8 FPA (FIG. 7D) assays. Data represent concentration in μM x-axis) vs % displacement (y-axis).

SMILES: CN(C)C1=C(Cl)C(=O)N(c2ccc(Cl)c(Cl)c2)C1=O [CID-779754, 3-chloro-1-(3,4-dichlorophenyl)-4-(dimethylamino)-1H-pyrrole-2,5-dione]
- Bfl-1 FP assay, activity in words (Bfl-1): binds reversibly and competes
- Bfl-1 FP assay, activity in words (Bfl-1; listed as MLS-0067130): equipotent with CID-1180676
- IC50 (Bfl-1; Bfl-1 FP IC50 (uM), Tables 3-5): 0.46 µM
- Competition for binding of a BH3 peptide to Bcl-2, in words (Bcl-2): weak activity
